Here are results for six compounds from patent US5948807A (priority 1997, dated 1999).

Experiment [1] addresses SERT-1, cocaine binding site on the serotonin transporter (Homo sapiens, UniProt P31645). As to the kind of experiment: biochemical.
In the next experiment the target is mu opioid receptor (Homo sapiens, UniProt P35372). Briefly: biochemical. It is filed as binding.
Experiment [2] addresses SERT-2, paroxetine binding site on the serotonin transporter (Homo sapiens, UniProt P31645). As to the kind of experiment: biochemical.
For a further experiment, the target named is kappa opioid receptor (Homo sapiens, UniProt P41145). Briefly: biochemical. Format: binding.
Another experiment relates to serotonin transporter. As to the kind of experiment: binding at serotonin transporter, comparison with SSRIs. As to conditions: vs citalopram, sertraline and fluoxetine.
For experiment [3], the target named is DAT, dopamine transporter (Homo sapiens, UniProt Q01959). As to the kind of experiment: radioligand binding, DAT ([^3 H]WIN35,428). The following applies: radioligand [^3 H]WIN35,428; racemic; spiroindanamines as hydrochlorides; read-out: Affinity (IC50) DAT ([^3 H]WIN35,428).

Counter-ions that a name gives are not always drawn. A value given as a limit tells only on which side of the number the result lay.

SERT-2, paroxetine binding site on the serotonin transporter, sequence (P31645 whole entry): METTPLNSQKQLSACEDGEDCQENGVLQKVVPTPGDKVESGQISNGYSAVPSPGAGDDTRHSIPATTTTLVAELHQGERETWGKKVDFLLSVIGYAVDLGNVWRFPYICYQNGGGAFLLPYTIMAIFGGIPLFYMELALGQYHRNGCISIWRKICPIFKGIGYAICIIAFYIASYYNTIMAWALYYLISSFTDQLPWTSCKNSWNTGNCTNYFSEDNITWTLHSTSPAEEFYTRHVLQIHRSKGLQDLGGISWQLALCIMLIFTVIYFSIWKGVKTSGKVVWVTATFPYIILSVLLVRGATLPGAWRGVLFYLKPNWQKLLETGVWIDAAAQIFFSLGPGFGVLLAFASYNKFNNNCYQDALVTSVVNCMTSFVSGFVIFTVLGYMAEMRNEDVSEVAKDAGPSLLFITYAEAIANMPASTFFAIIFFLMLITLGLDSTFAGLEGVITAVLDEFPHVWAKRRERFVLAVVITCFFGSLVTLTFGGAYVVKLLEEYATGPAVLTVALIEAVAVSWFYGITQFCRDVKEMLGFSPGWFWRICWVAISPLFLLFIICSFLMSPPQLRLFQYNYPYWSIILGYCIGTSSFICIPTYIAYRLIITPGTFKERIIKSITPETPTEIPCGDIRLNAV
SERT-1, cocaine binding site on the serotonin transporter, sequence (P31645 whole entry): as above
mu opioid receptor, sequence (P35372 whole entry): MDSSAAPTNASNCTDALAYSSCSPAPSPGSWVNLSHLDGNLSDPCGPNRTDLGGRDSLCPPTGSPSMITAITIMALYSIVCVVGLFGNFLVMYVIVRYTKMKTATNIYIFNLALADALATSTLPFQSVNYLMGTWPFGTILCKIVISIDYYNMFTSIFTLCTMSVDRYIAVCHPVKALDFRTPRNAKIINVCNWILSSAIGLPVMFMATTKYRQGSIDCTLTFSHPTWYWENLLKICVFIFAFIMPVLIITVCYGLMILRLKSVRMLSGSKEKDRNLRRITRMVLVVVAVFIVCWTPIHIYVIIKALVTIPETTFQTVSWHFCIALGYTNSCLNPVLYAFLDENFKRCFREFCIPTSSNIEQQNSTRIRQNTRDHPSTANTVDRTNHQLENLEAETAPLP
kappa opioid receptor, sequence (P41145 whole entry): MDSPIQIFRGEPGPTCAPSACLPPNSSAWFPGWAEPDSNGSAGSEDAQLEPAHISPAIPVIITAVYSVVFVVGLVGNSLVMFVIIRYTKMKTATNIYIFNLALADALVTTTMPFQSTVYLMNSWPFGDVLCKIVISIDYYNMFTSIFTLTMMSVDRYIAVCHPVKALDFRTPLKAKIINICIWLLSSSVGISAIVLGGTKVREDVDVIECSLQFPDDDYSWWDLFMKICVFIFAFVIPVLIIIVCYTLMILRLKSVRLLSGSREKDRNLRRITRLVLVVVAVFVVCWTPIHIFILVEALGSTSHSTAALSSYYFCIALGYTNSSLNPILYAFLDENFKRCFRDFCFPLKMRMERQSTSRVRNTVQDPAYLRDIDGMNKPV
DAT, dopamine transporter, sequence (Q01959 whole entry): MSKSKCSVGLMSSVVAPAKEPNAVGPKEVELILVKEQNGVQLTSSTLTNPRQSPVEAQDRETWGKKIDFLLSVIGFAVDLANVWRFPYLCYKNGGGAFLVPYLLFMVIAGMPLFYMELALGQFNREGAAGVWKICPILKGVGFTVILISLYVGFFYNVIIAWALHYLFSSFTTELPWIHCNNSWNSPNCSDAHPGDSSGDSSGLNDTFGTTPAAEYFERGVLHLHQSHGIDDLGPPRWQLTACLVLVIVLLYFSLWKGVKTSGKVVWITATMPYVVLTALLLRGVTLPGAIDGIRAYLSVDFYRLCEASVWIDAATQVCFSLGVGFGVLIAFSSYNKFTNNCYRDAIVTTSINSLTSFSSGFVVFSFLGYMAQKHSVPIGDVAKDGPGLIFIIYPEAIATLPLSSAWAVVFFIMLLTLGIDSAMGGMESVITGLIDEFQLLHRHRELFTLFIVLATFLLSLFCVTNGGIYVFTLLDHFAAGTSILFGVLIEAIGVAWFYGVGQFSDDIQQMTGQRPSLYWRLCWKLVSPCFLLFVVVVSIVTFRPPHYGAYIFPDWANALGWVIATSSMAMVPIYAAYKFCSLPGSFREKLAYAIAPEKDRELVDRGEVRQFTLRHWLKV

Turning to `COc1ccc2c(c1)C1(CC(=O)NC1=O)CC2c1ccc(Cl)c(Cl)c1` (racemic) [Compound 1c, 3-(3,4-Dichlorophenyl)-6-methoxyspiro[indan-1,3'-pyrrolidin]-2',5'-dione], the IC50 in experiment [1] was 0.25 µM; against mu opioid receptor, 100 µM; in experiment [2] it was over 100 µM; against kappa opioid receptor, over 100 µM. Further, the “affinity at SERT-2 (in words)” value in experiment [2] is “higher affinity for SERT-2 than the basic spiroindanamines 3d and 4a”.
Regarding `c1ccc(C2CC3(CCNC3)c3ccccc32)cc1` (racemic) [Compound 3a, 3-Phenylspiro[indan-1,3'-pyrrolidine]], the IC50 stood at 0.01 µM in experiment [1]; 0.5 µM against mu opioid receptor; 2.5 µM in experiment [2]; 10 µM against kappa opioid receptor; 0.2 µM in experiment [3]. Moreover, the “affinity for SERT-1 (in words)” value in experiment [1] is listed as “low nanomolar affinity”. The “affinity at SERT-2 (in words)” value in experiment [2] is recorded as “moderate to weak affinity”. The “affinity for the serotonin transporter relative to SSRIs” value with serotonin transporter is “comparable to or higher than that of other specific serotonin re-uptake inhibitors (SSRIs)”.
For the compound `COc1ccc2c(c1)C1(CCNC1)CC2c1ccc(Cl)c(Cl)c1` (racemic) [Compound 3c, 3-(3,4-Dichlorophenyl)-6-methoxyspiro[indan-1,3'-pyrrolidine]], the IC50 in experiment [1] came out at 0.002 µM; at mu opioid receptor, 5 µM; in experiment [2], 0.4 µM; on kappa opioid receptor, 80 µM; in experiment [3], 0.15 µM. Moreover, the “affinity for SERT-1 (in words)” value in experiment [1] is recorded as “low nanomolar affinity”. Also, the “affinity at SERT-2 (in words)” value in experiment [2] is recorded as “moderate to weak affinity”. Besides, the “affinity for the serotonin transporter relative to SSRIs” value with serotonin transporter is “comparable to or higher than that of other specific serotonin re-uptake inhibitors (SSRIs)”.
Take `Oc1ccc2c(c1)C1(CCNC1)CC2c1ccc(Cl)c(Cl)c1` (racemic) [Compound 3d, 3-(3,4-Dichlorophenyl)-6-hydroxyspiro[indan-1,3'-pyrrolidine]]: the IC50 in experiment [1] was 0.75 µM; against mu opioid receptor, 2.9 µM; in experiment [2] it was 0.3 µM; at kappa opioid receptor it was 1.52 µM; in experiment [3] it was 0.73 µM.
For `c1ccc(C2CC3(CCN(CC4CC4)C3)c3ccccc32)cc1` (racemic) [Compound 4a, 1'-Cyclopropylmethyl-3-phenylspiro[indan-1,3'-pyrrolidine] hydrochloride] the same measures were 2.41 µM, 0.98 µM, 2 µM, 1 µM and 2.9 µM.
Take `O=C1C[C@@]2(C[C@@H](c3ccccc3)c3ccccc32)C(=O)N1` (relative stereo) [Compound 1a, cis-3-Phenylspiro[indan-1,3'-pyrrolidine]-2',5'-dione]: the IC50 in experiment [1] was 26.7 µM; at mu opioid receptor it was 100 µM; in experiment [2], over 100 µM; at kappa opioid receptor it was over 100 µM.
